Data from patent US8506943B2, “Cyclohexylethyl carboxylic acid ester compositions and method for using the same for reducing malodors” (International Flavors & Fragrances Inc., priority 2009, dated 2013).
Marks after values point to notes of the source that are not given here.

Legend:
Design in all cases: species or system human
[1] = Sweat malodor model (IVA), panel mean rank of odor intensity (Example V); settings: for mean rank of the odor intensity: 1 = least intense, 5 = most intense, set of racemate, S and R
Excerpt: (§1) Establishment of a Model of Sweat Malodor: It is known that the perspirative malodors of human body, particularly sweat, are associated with the production of several unpleasant smelling organic acids, particularly isovaleric acid (“IVA”). The commercial sample of this malodorous material (commercially available at Sigma-Aldrich Inc.) was thus used as a model compound to assess the effectiveness of sweat malodor counteractants.
(§2) Preparation of Test Samples: The VEILEX™ mixtures (VEILEX™ I, VEILEX™ II, and VEILEX™ III, commercially available from IFF) and the enantiomeric compounds of the present invention (all with optical purity over 80% ee, synthesized as above) were evaluated for sweat malodor counteracting effectiveness. Different concentrations of VEILEX™ mixtures and their enantiomeric counterparts were used based on the priori usage levels. Additionally, the overall intensity of 1-cyclohexylethanol (1% in diethyl phthalate) was noticeably greater than the other two compounds, a higher concentration of IVA (2% in diethyl phthalate) was therefore used for the test.
(§3) Testing Procedure: A cyclohexylethyl carboxylic acid ester compound (1 g, a racemate or enantiomer) and IVA (1 g, 1-2%) were placed in two 1-ounce jars separately, which were both placed in a 1-gallon jar and capped for 24 hours to allow for the headspace saturation prior to the test. Each set of three test samples (i.e., three 1-gallone jars containing IVA and, respectively, a racemate and each of the two enantiomers) was presented in a blind, random order to internal panelists (consisting of trained females having a mean age of 40 years).
(§4) The panelists were instructed to take the steps of i) uncap a first jar; ii) place their noses immediately above the opening; iii) take short sniffs for 2-3 seconds; iv) cap the jar; v) repeat the steps for the other two jars in the same set; and vi) provide a rank of the odor intensity for a set of three jars using the intensity scales of 1 to 5, where 1 represents the “Least Intense” and 5 represents the “Most Intense”. The ranks of the odor intensity were then statistically analyzed using SPSS 15.0 for Windows. Freidman's non-parametric tests were used to analyze the ranked intensity for each test sample. Post hoc pair-wise comparisons were only conducted when the overall Chi-square omnibus test was statistically significant (p<0.05).

[2] = Sweat malodor model (IVA), number of panelists ranking more intense (Example VI); settings: for rank of the odor intensity (number of panelists who ranked the more intense): S vs R
Excerpt: as §1, §2, §3, §4
(§5) Testing Procedure: Test samples were prepared the same as above. The same procedure was carried out except the ranks of the odor intensity were recorded based on the numbers of the panelists who ranked the more intense.

[3] = Bathroom malodor model, number of panelists ranking more intense (Example VI); settings: S vs R
Procedure: as §3, §4
(§6) Establishment of Mold/Mildew and Bathroom Malodor Models: In addition to the sweat model established as above, the malodor models of mold/mildew and bathroom were prepared based on applicant's proprietary formulations for assessing the effectiveness of mold/mildew and bathroom malodor counteractants.
as §5

[4] = Mold/mildew malodor model, number of panelists ranking more intense (Example VI); settings: for rank of the odor intensity (number of panelists who ranked the more intense): Mold/Mildew, S vs R
Procedure: as §3, §4, §6, §5

[5] = Sweat malodor (1% IVA) intensity on Labeled Magnitude Scale, concentration series (Example VIII); settings: for Malodor Intensity: LMS mean, 0-100; for % MOR (percent malodor reduction): vs Malodor Alone
Procedure: Determination of an Effective Concentration of (1S)-1-cyclohexylethyl acetate: To further identify an effective concentration of (1S)-1-cyclohexylethyl acetate in counteracting sweat malodor, (1S)-1-cyclohexylethyl acetate was prepared at a series of concentrations, ranging from 0.05% to 5% in diethyl phthalate, with corresponding vapor phase concentrations ranging from about 1.5 to about 150 μg per liter of air space.
Testing Procedure: The same procedures were carried out as in Examples V and VII to evaluate the effectiveness of different concentrations of (1S)-1-cyclohexylethyl acetate (“VEILEX™ 2S”) in counteracting sweat malodor modeled by 1% of IVA.

[6] = Mold/mildew malodor intensity on Labeled Magnitude Scale, concentration series (Example VII); settings: for Malodor Intensity: LMS mean, 0-100; for % MOR (percent malodor reduction): vs Malodor Alone
Procedure: Determination of an Effective Concentration of (1R)-1-cyclohexylethyl butyrate: To further identify an effective concentration of (1R)-1-cyclohexylethyl butyrate in counteracting mold/mildew malodor, (1R)-1-cyclohexylethyl butyrate was prepared at a series of concentrations, ranging from 0.05% to 10% in diethyl phthalate, with corresponding vapor phase concentrations ranging from about 0.3 to about 60 μg per liter of air space.
Testing Procedure: The same procedure was carried out as in Example VI to evaluate the effectiveness of different concentrations of (1R)-1-cyclohexylethyl butyrate (“VEILEX™ 1R”) in counteracting mold/mildew malodor. The odor intensity was rated using Labeled Magnitude Scale (LMS) [Green, et al., Chemical Senses, 21(3), June 1996, 323-334]. Mean (“Malodor Intensity”) and standard error of the mean (“SE”, ±) were obtained, where 0 represents “No Sensation” and 100 represents “The Strongest Imaginable Malodor Sensation”. Percent malodor reduction (“% MOR”) represents the reduction in mean malodor intensity of the negative control (Malodor Alone) in the presence of an enantiomeric cyclohexylethyl carboxylic acid ester.

[7] = compared with enantiomeric counterpart

## C[C@@H](O)C1CCCCC1 [1-cyclohexylethanol R, (R)-1-cyclohexylethanol]
[1]; IVA (2%), test compound 1%
  mean rank of the odor intensity: 1.50
[2]; IVA (2%), test compound 1%
  rank of the odor intensity (number of panelists who ranked the more intense): 5
[3]; test compound 1%
  rank of the odor intensity (number of panelists who ranked the more intense): 13
[4]; test compound 1%
  rank of the odor intensity (number of panelists who ranked the more intense): 13

## CC(=O)O[C@H](C)C1CCCCC1 [1-cyclohexylethyl acetate R, (R)-1-cyclohexylethyl acetate]
[1]; IVA (1%), test compound 2%
  mean rank of the odor intensity: 2.46
[2]; IVA (1%), test compound 2%
  rank of the odor intensity (number of panelists who ranked the more intense): 11
[3]; test compound 2%
  rank of the odor intensity (number of panelists who ranked the more intense): 12
[4]; test compound 2%
  rank of the odor intensity (number of panelists who ranked the more intense): 11

## CCCC(=O)O[C@@H](C)C1CCCCC1 [1-cyclohexylethyl butyrate S, (S)-1-cyclohexylethyl butyrate]
[1]; IVA (1%), test compound 5%
  mean rank of the odor intensity: 2.08
[2]; IVA (1%), test compound 5%
  rank of the odor intensity (number of panelists who ranked the more intense): 8
[3]; test compound 5%
  rank of the odor intensity (number of panelists who ranked the more intense): 12
[4]; test compound 5%
  rank of the odor intensity (number of panelists who ranked the more intense): 20

## CC(=O)O[C@@H](C)C1CCCCC1 [1-cyclohexylethyl acetate S, (1S)-1-cyclohexylethyl acetate]
[1]; IVA (1%), test compound 2%
  mean rank of the odor intensity: 1.38*
[1]; compared with racemate and R enantiomer
  effectiveness in counteracting sweat malodor (in words): particularly effective in counteracting sweat malodor
[5]; 0.05%, 1.5 μg/L
  Malodor Intensity: 17.98
  % MOR (percent malodor reduction): 23%
[5]; 0.1%, 3 μg/L
  Malodor Intensity: 18.29
  % MOR (percent malodor reduction): 23%
[5]; 0.5%, 15 μg/L
  Malodor Intensity: 14.8
  % MOR (percent malodor reduction): 37%
[5]; 1%, 30 μg/L
  Malodor Intensity: 14.15
  % MOR (percent malodor reduction): 42%
[5]; 5%, 150 μg/L
  Malodor Intensity: 8.35
  % MOR (percent malodor reduction): 55%
[2]; IVA (1%), test compound 2%
  rank of the odor intensity (number of panelists who ranked the more intense): 2*
[2]; [7]
  effectiveness in counteracting sweat malodor (in words): significantly and specifically effective in counteracting sweat malodor
[3]; test compound 2%
  rank of the odor intensity (number of panelists who ranked the more intense): 13
[4]; test compound 2%
  rank of the odor intensity (number of panelists who ranked the more intense): 14

## CC(O)C1CCCCC1 (racemic) [1-cyclohexylethanol M, 1-cyclohexylethanol, reference compound]
[1]; IVA (2%), test compound 1%
  mean rank of the odor intensity: 2.58

## CC(=O)OC(C)C1CCCCC1 (racemic) [1-cyclohexylethyl acetate M, 1-cyclohexylethyl acetate, reference compound]
[1]; IVA (1%), test compound 2%
  mean rank of the odor intensity: 2.15

## CCCC(=O)OC(C)C1CCCCC1 (racemic) [1-cyclohexylethyl butyrate M, 1-cyclohexylethyl butyrate, reference compound]
[1]; IVA (1%), test compound 5%
  mean rank of the odor intensity: 2.50

## C[C@H](O)C1CCCCC1 [1-cyclohexylethanol S, (S)-1-cyclohexylethanol]
[1]; IVA (2%), test compound 1%
  mean rank of the odor intensity: 1.92
[2]; IVA (2%), test compound 1%
  rank of the odor intensity (number of panelists who ranked the more intense): 7
[3]; test compound 1%
  rank of the odor intensity (number of panelists who ranked the more intense): 12
[4]; test compound 1%
  rank of the odor intensity (number of panelists who ranked the more intense): 12

## CCCC(=O)O[C@H](C)C1CCCCC1 [1-cyclohexylethyl butyrate R, (1R)-1-cyclohexylethyl butyrate]
[1]; IVA (1%), test compound 5%
  mean rank of the odor intensity: 1.42
[6]; 0.05%, 0.3 μg/L
  Malodor Intensity: 13.70
  % MOR (percent malodor reduction): 13%
[6]; 0.1%, 0.6 μg/L
  Malodor Intensity: 11.86
  % MOR (percent malodor reduction): 24%
[6]; 0.5%, 3 μg/L
  Malodor Intensity: 12.03
  % MOR (percent malodor reduction): 23%
[6]; 1%, 6 μg/L
  Malodor Intensity: 11.66
  % MOR (percent malodor reduction): 22%
[6]; 10%, 60 μg/L
  Malodor Intensity: 8.25
  % MOR (percent malodor reduction): 47%
[2]; IVA (1%), test compound 5%
  rank of the odor intensity (number of panelists who ranked the more intense): 4
[3]; test compound 5%
  rank of the odor intensity (number of panelists who ranked the more intense): 13
[4]; test compound 5%
  rank of the odor intensity (number of panelists who ranked the more intense): 5*
[4]; [7]
  effectiveness in counteracting mold/mildew malodor (in words): significantly and specifically effective in counteracting mold/mildew malodor
